Measurements from the NIST ThermoML archive (doi:10.1021/je030167i).
± gives the expanded uncertainty stated by the source.

Assay: xn = mol fraction of the nth substance listed
Settings: 101.3 kPa, Liquid

CC1CCCO1 (stereo not drawn) [2-methyltetrahydrofuran] + CCC(C)O
Settings	kinematic viscosity, 298.15 K [m2/s]	kinematic viscosity, 313.15 K [m2/s]	mass density, 298.15 K [kg/m3]	mass density, 313.15 K [kg/m3]
x2 = 0	5.59e-07 ± 2e-08	4.92e-07 ± 1.8e-08	849.28 ± 0.49	834.01 ± 0.49
x2 = 0.0437	5.66e-07 ± 2e-08	4.91e-07 ± 1.8e-08	847.1 ± 0.49	831.74 ± 0.49
x2 = 0.0915	6.07e-07 ± 2.1e-08	5.06e-07 ± 1.8e-08	844.81 ± 0.49	829.48 ± 0.49
x2 = 0.1968	6.45e-07 ± 2.2e-08	5.54e-07 ± 2e-08	839.74 ± 0.49	824.64 ± 0.49
x2 = 0.3024	7.16e-07 ± 2.4e-08	6.04e-07 ± 2.1e-08	834.82 ± 0.49	820.02 ± 0.49
x2 = 0.3993	8.06e-07 ± 2.7e-08	6.7e-07 ± 2.3e-08	830.17 ± 0.49	815.81 ± 0.49
x2 = 0.5051	9.5e-07 ± 3.1e-08	7.71e-07 ± 2.6e-08	825.31 ± 0.49	811.2 ± 0.49
x2 = 0.6018	1.11e-06 ± 3.6e-08	8.78e-07 ± 2.9e-08	820.77 ± 0.49	806.88 ± 0.49
x2 = 0.6999	1.39e-06 ± 4.4e-08	1.05e-06 ± 3.4e-08	816.27 ± 0.49	802.66 ± 0.49
x2 = 0.8077	1.86e-06 ± 5.7e-08	1.34e-06 ± 4.2e-08	811.31 ± 0.49	797.97 ± 0.49
x2 = 0.8708	2.26e-06 ± 6.8e-08	1.57e-06 ± 4.9e-08	808.35 ± 0.49	795.28 ± 0.5
x2 = 0.9361	2.9e-06 ± 8.6e-08	1.86e-06 ± 5.8e-08	805.28 ± 0.49	792.38 ± 0.5

CC1CCCO1 (stereo not drawn) [2-methyltetrahydrofuran] + CC(C)(C)Cl
298.15 K, x2 = 0
Settings	kinematic viscosity [m2/s]	mass density [kg/m3]
–	5.59e-07 ± 1e-08	849.28 ± 0.49

CC1CCCO1 (stereo not drawn) [2-methyltetrahydrofuran] + CCCCO
Settings	kinematic viscosity, 298.15 K [m2/s]	kinematic viscosity, 313.15 K [m2/s]	mass density, 298.15 K [kg/m3]	mass density, 313.15 K [kg/m3]
x2 = 0	5.59e-07 ± 2e-08	4.92e-07 ± 1.8e-08	849.28 ± 0.49	834.01 ± 0.49
x2 = 0.0488	5.91e-07 ± 2.1e-08	5.11e-07 ± 1.9e-08	847.62 ± 0.48	832.35 ± 0.48
x2 = 0.1039	6.22e-07 ± 2.2e-08	5.35e-07 ± 1.9e-08	845.56 ± 0.46	830.5 ± 0.46
x2 = 0.205	6.93e-07 ± 2.3e-08	5.88e-07 ± 2.1e-08	841.78 ± 0.43	827.07 ± 0.43
x2 = 0.3006	7.7e-07 ± 2.6e-08	6.52e-07 ± 2.2e-08	838.03 ± 0.41	823.64 ± 0.41
x2 = 0.4051	8.81e-07 ± 2.9e-08	7.34e-07 ± 2.5e-08	833.86 ± 0.38	820 ± 0.39
x2 = 0.5099	1.05e-06 ± 3.4e-08	8.41e-07 ± 2.8e-08	829.37 ± 0.36	815.98 ± 0.36
x2 = 0.6036	1.21e-06 ± 3.8e-08	9.69e-07 ± 3.1e-08	825.28 ± 0.34	812.07 ± 0.35
x2 = 0.7034	1.47e-06 ± 4.5e-08	1.16e-06 ± 3.6e-08	820.68 ± 0.32	807.96 ± 0.33
x2 = 0.8042	1.84e-06 ± 5.6e-08	1.39e-06 ± 4.3e-08	815.8 ± 0.31	803.45 ± 0.32
x2 = 0.906	2.4e-06 ± 7.1e-08	1.76e-06 ± 5.3e-08	810.56 ± 0.3	798.76 ± 0.31
x2 = 0.9582	2.8e-06 ± 8.2e-08	1.99e-06 ± 6e-08	807.81 ± 0.29	796.23 ± 0.3

CC1CCCO1 (stereo not drawn) [2-methyltetrahydrofuran] + CCC(C)Cl
x2 = 0
Settings	kinematic viscosity [m2/s]	mass density [kg/m3]
298.15 K	5.59e-07 ± 2e-08	849.28 ± 0.49
313.15 K	4.92e-07 ± 1.8e-08	834.01 ± 0.49

CCC(C)O (stereo not drawn) [butan-2-ol] + CC1CCCO1
x1 = 1
Settings	kinematic viscosity [m2/s]	mass density [kg/m3]
298.15 K	3.73e-06 ± 1.1e-07	802.25 ± 0.49
313.15 K	2.24e-06 ± 7e-08	789.44 ± 0.5

CC1CCCO1 (stereo not drawn) [2-methyltetrahydrofuran] + CC(C)(C)O
Settings	kinematic viscosity, 298.15 K [m2/s]	kinematic viscosity, 313.15 K [m2/s]	mass density, 298.15 K [kg/m3]	mass density, 313.15 K [kg/m3]
x2 = 0	5.59e-07 ± 2e-08	4.92e-07 ± 1.8e-08	849.28 ± 0.49	834.01 ± 0.49
x2 = 0.038	5.81e-07 ± 2e-08	5.04e-07 ± 1.8e-08	846.42 ± 0.48	831.02 ± 0.48
x2 = 0.0906	6.07e-07 ± 2.1e-08	5.27e-07 ± 1.9e-08	842.39 ± 0.47	826.98 ± 0.48
x2 = 0.191	6.72e-07 ± 2.3e-08	5.73e-07 ± 2e-08	835.27 ± 0.46	819.77 ± 0.46
x2 = 0.3192	7.79e-07 ± 2.6e-08	6.49e-07 ± 2.2e-08	826.46 ± 0.44	811.22 ± 0.44
x2 = 0.3935	8.66e-07 ± 2.8e-08	7.06e-07 ± 2.4e-08	821.4 ± 0.43	806.46 ± 0.43
x2 = 0.4981	1.03e-06 ± 3.3e-08	8.15e-07 ± 2.7e-08	814.49 ± 0.41	799.58 ± 0.42
x2 = 0.5918	1.25e-06 ± 3.9e-08	9.49e-07 ± 3.1e-08	808.4 ± 0.4	793.51 ± 0.41
x2 = 0.6972	1.67e-06 ± 5.1e-08	1.17e-06 ± 3.7e-08	801.38 ± 0.39	786.72 ± 0.4
x2 = 0.7952	2.2e-06 ± 6.6e-08	1.47e-06 ± 4.6e-08	795.17 ± 0.38	780.27 ± 0.39
x2 = 0.8989	3.34e-06 ± 9.8e-08	1.97e-06 ± 6.1e-08	788.08 ± 0.37	773.14 ± 0.38
x2 = 0.9532	4.37e-06 ± 1.3e-07	2.35e-06 ± 7.4e-08	784.19 ± 0.37	769.08 ± 0.38

CC(C)CCl [1-chloro-2-methylpropane] + CC1CCCO1
Settings	kinematic viscosity, 298.15 K [m2/s]	kinematic viscosity, 313.15 K [m2/s]	mass density, 298.15 K [kg/m3]	mass density, 313.15 K [kg/m3]
x1 = 0.0484	5.56e-07 ± 2e-08	4.88e-07 ± 1.8e-08	850.43 ± 0.49	834.97 ± 0.49
x1 = 0.0999	5.52e-07 ± 2e-08	4.85e-07 ± 1.8e-08	852.07 ± 0.49	836.22 ± 0.49
x1 = 0.1962	5.44e-07 ± 1.9e-08	4.78e-07 ± 1.8e-08	854.44 ± 0.49	838.53 ± 0.49
x1 = 0.3105	5.35e-07 ± 1.9e-08	4.7e-07 ± 1.7e-08	857.3 ± 0.49	841.23 ± 0.49
x1 = 0.4006	5.29e-07 ± 1.9e-08	4.65e-07 ± 1.7e-08	859.25 ± 0.49	843.09 ± 0.49
x1 = 0.4775	5.23e-07 ± 1.9e-08	4.6e-07 ± 1.7e-08	860.99 ± 0.49	844.5 ± 0.49
x1 = 0.6006	5.15e-07 ± 1.9e-08	4.52e-07 ± 1.7e-08	863.58 ± 0.49	846.94 ± 0.49
x1 = 0.7031	5.08e-07 ± 1.8e-08	4.46e-07 ± 1.7e-08	865.6 ± 0.49	848.88 ± 0.49
x1 = 0.8026	5.03e-07 ± 1.8e-08	4.4e-07 ± 1.6e-08	867.49 ± 0.49	850.49 ± 0.49
x1 = 0.9059	4.97e-07 ± 1.8e-08	4.34e-07 ± 1.6e-08	869.22 ± 0.49	852.11 ± 0.49
x1 = 0.9506	4.95e-07 ± 1.8e-08	4.32e-07 ± 1.6e-08	870.2 ± 0.49	852.87 ± 0.49
x1 = 1	4.92e-07 ± 1.8e-08	4.29e-07 ± 1.6e-08	870.93 ± 0.49	853.51 ± 0.49

CC1CCCO1 (stereo not drawn) [2-methyltetrahydrofuran] + CC(C)CO
Settings	kinematic viscosity, 298.15 K [m2/s]	kinematic viscosity, 313.15 K [m2/s]	mass density, 298.15 K [kg/m3]	mass density, 313.15 K [kg/m3]
x2 = 0	5.59e-07 ± 2e-08	4.92e-07 ± 1.8e-08	849.28 ± 0.49	834.01 ± 0.49
x2 = 0.0397	5.85e-07 ± 2.1e-08	5.06e-07 ± 1.8e-08	847.52 ± 0.48	832.15 ± 0.48
x2 = 0.0951	6.17e-07 ± 2.2e-08	5.31e-07 ± 1.9e-08	844.97 ± 0.47	829.82 ± 0.47
x2 = 0.1999	6.87e-07 ± 2.3e-08	5.88e-07 ± 2.1e-08	840.08 ± 0.45	825.25 ± 0.46
x2 = 0.3008	7.77e-07 ± 2.6e-08	6.54e-07 ± 2.2e-08	835.46 ± 0.44	820.88 ± 0.44
x2 = 0.3982	8.96e-07 ± 2.9e-08	7.47e-07 ± 2.5e-08	830.71 ± 0.42	816.54 ± 0.43
x2 = 0.4988	1.04e-06 ± 3.3e-08	8.47e-07 ± 2.8e-08	825.72 ± 0.41	811.84 ± 0.41
x2 = 0.5992	1.26e-06 ± 3.9e-08	9.96e-07 ± 3.2e-08	820.51 ± 0.39	807.01 ± 0.4
x2 = 0.7013	1.58e-06 ± 4.9e-08	1.22e-06 ± 3.8e-08	815.04 ± 0.38	801.97 ± 0.39
x2 = 0.7995	2.06e-06 ± 6.2e-08	1.51e-06 ± 4.7e-08	809.54 ± 0.37	796.99 ± 0.38
x2 = 0.9048	2.93e-06 ± 8.6e-08	2.02e-06 ± 6.1e-08	803.45 ± 0.36	791.39 ± 0.37
x2 = 0.9557	3.55e-06 ± 1e-07	2.36e-06 ± 7.1e-08	800.39 ± 0.35	788.49 ± 0.36

CCCCCl [1-chlorobutane] + CC1CCCO1
x1 = 1
Settings	kinematic viscosity [m2/s]	mass density [kg/m3]
298.15 K	4.78e-07 ± 1.7e-08	880.62 ± 0.3
313.15 K	4.21e-07 ± 1.6e-08	863.86 ± 0.31

CCCCO [butan-1-ol] + CC1CCCO1
x1 = 1
Settings	kinematic viscosity [m2/s]	mass density [kg/m3]
298.15 K	3.19e-06 ± 9.3e-08	805.56 ± 0.29
313.15 K	2.22e-06 ± 6.7e-08	794.19 ± 0.3
